From patent US7855290B2, “Pyridine derivatives and pyrimidine derivatives (3)” (Eisai R&D Management Co., Ltd., priority 2005, dated 2010)

Each compound was assayed against T1, HGFR (Homo sapiens, UniProt P08581) (assay: Inhibitory activity against the HGFR autophosphorylation using ELISA (MKN-45 cells)). Conditions: 1 hr with test substance.
T1 construct: endogenous in cells; host or cells: MKN-45 human gastric cancer cells
T1 sequence (P08581 25-1390): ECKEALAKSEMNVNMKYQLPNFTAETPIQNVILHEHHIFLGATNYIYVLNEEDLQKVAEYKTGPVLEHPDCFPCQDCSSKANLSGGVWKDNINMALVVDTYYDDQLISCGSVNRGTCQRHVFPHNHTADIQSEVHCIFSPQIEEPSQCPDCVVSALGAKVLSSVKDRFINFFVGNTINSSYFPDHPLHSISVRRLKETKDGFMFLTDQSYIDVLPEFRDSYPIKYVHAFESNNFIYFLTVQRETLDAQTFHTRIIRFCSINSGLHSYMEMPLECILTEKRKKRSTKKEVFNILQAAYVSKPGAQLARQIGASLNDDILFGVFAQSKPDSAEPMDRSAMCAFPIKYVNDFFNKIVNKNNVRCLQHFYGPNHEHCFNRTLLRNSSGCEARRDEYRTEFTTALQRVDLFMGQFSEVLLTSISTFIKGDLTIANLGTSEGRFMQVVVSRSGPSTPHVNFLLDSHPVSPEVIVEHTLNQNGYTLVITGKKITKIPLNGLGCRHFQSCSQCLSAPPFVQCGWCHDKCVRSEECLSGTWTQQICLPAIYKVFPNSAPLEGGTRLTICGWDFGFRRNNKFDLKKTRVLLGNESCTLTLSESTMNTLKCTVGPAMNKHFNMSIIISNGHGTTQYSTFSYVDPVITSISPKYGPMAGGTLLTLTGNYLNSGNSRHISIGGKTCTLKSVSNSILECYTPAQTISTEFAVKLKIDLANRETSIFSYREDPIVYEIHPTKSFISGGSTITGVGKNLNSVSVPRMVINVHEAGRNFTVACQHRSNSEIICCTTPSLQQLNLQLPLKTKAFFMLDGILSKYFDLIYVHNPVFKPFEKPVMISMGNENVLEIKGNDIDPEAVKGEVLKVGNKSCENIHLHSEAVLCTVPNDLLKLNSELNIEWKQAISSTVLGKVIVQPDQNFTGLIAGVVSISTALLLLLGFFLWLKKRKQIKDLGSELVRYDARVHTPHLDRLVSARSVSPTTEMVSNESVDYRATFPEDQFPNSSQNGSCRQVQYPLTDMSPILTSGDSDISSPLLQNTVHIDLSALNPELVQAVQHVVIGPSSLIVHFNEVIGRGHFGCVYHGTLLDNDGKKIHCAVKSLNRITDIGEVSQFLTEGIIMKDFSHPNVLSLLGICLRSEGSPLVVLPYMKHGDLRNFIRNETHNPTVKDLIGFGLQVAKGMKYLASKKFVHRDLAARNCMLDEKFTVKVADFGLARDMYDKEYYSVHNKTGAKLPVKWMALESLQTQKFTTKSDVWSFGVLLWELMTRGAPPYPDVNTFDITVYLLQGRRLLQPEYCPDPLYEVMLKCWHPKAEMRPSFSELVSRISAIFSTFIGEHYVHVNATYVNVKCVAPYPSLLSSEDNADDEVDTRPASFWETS
Format: cell-based
In short: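 MKN-45 gastric cancer cells, plated overnight in 1% FBS RPMI1640, treated with compound 1 h at 37° C and lysed. Lysate captured on anti-phosphotyrosine (PY20) plates, probed with anti-HGFR then HRP anti-rabbit IgG; TMB absorbance at 450 nm. Activity expressed as % of untreated extract (100%) versus lysis buffer blank (0%).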
CN(C)CCN1CCN(C(=O)Nc2cc(Oc3ccc(NC(=O)C4(C(=O)Nc5ccc(F)cc5)CC4)cc3F)ccn2)CC1 [Example 7, N-[4-({2-[({4-[2-(Dimethylamino)ethyl]piperazin-1-yl}carbonyl)amino]pyridin-4-yl}oxy)-3-fluorophenyl]-N′-(4-fluorophenyl)cyclopropane-1,1-dicarboxamide] was tested, and the IC50 was 35 nM.
In the case of CN1CCC(N(C)C(=O)Nc2cc(Oc3ccc(NC(=O)C4(C(=O)Nc5ccc(F)cc5)CC4)cc3F)ccn2)CC1 [Example 1, N-(3-Fluoro-4-{[2-({[methyl(1-methylpiperidin-4-yl)amino]carbonyl}amino)pyridin-4-yl]oxy}phenyl)-N′-(4-fluorophenyl)cyclopropane-1.1-dicarboxamide], the IC50 is reported as 18 nM.
O=C(Nc1cc(Oc2ccc(NC(=O)C3(C(=O)Nc4ccc(F)cc4)CC3)cc2)ccn1)N1CCCC1 [Example 69, N-(4-Fluorophenyl)-N′-[4-({2-[(pyrrolidin-1-ylcarbonyl)amino]pyridin-4-yl}oxy)phenyl]cyclopropane-1,1-dicarboxamide] gave an IC50 of 37 nM.
In the case of O=C(Nc1cc(Oc2ccc(NC(=O)C3(C(=O)Nc4ccc(F)cc4)CC3)cc2F)ccn1)N1CCC(CN2CCC2)CC1 [Example 26, N-(4-{[2-({[4-(Azetidin-1-ylmethyl)piperidin-1-yl]carbonyl}amino)pyridin-4-yl]oxy}-3-fluorophenyl)-N′-(4-fluorophenyl)cyclopropane-1,1-dicarboxamide], the IC50 is reported as 8.4 nM.
O=C(Nc1cc(Oc2cc(F)c(NC(=O)C3(C(=O)Nc4ccc(F)cc4)CC3)cc2F)ncn1)N1CC(CO)C1 [Example 99, N-(2,5-Difluoro-4-{[4-({[3-(hydroxymethyl)azetidin-1-yl]carbonyl}amino)pyrimidin-6-yl]oxy}phenyl)-N′-(4-fluorophenyl)cyclopropane-1,1-dicarboxamide] showed an IC50 of 14 nM.
In the case of O=C(Nc1cc(Oc2ccc(NC(=O)C3(C(=O)Nc4ccc(F)cc4)CC3)cc2F)ccn1)N1CCC(N2CCC2)CC1 [Example 11, N-{4-[(2-{[(4-Azetidin-1-ylpiperidin-1-yl)carbonyl]amino}pyridin-4-yl)oxy]-3-fluorophenyl}-N′-(4-fluorophenyl)cyclopropane-1,1-dicarboxamide], the IC50 is reported as 13 nM.
O=C(Nc1cc(Oc2ccc(NC(=O)C3(C(=O)Nc4ccc(F)cc4)CC3)c(F)c2)ccn1)N1CCC(N2CCCC2)CC1 [Example 4, N-(4-Fluorophenyl)-N′-{2-fluoro-4-[(2-{[(4-pyrrolidin-1-ylpiperidin-1-yl)carbonyl]amino}pyridin-4-yl)oxy]phenyl}cyclopropane-1,1-dicarboxamide] gave an IC50 of 14 nM.
In the case of CN(C)CCN1CCN(C(=O)Nc2cc(Oc3ccc(NC(=O)C4(C(=O)Nc5ccc(F)cc5)CC4)cc3)ccn2)CC1 [Example 30, N-[4-({2-[({4-[2-(Dimethylamino)ethyl]piperazin-1-yl}carbonyl)amino]pyridin-4-yl}oxy)phenyl]-N′-(4-fluorophenyl)cyclopropane-1,1-dicarboxamide], the IC50 is reported as 12 nM.
